Results from US12384769B2, “Heteroaryl-substituted aminoalkyl azole compounds as pesticides” (Elanco Animal Health GmbH, priority 2019, dated 2025).

Legend:
Type in all cases: in vivo
[1] = tested on: Boophilus microplus; assay: Boophilus microplus injection test (BOOPMI Injection); conditions: Rhipicephalus microplus, 168 h, injection into adult engorged female ticks, egg deposition after 7 days, read-out: activity (efficacy, infertile eggs); for pest or weed control at 0.004 mg: 4 μg/animal; for pest or weed control at 0.02 mg: 20 μg/animal
Protocol: Boophilus microplus—Injection Test (BOOPMI Injection)
(§1) Solvent: dimethyl sulfoxide
To produce a suitable preparation of active compound, 10 mg of active compound are dissolved in 0.5 mL solvent, and the concentrate is diluted with solvent to the desired concentration.
Five adult engorged female ticks (Boophilus microplus) are injected with 1 μL compound solution into the abdomen. The ticks are transferred into replica plates and incubated in a climate chamber.
After 7 days egg deposition of fertile eggs is monitored. Eggs where fertility is not visible are stored in a climate chamber till hatching after about 42 days. An efficacy of 100% means all eggs are infertile; 0% means all eggs are fertile.

[2] = tested on: Rhipicephalus microplus (strain Parkhurst, resistant against synthetic pyrethroids); assay: Rhipicephalus microplus in-vitro contact test, larval cattle tick (BOOPMI Contact); conditions: 5 μg/cm^2 (=500 g/ha), after 48 hours, read-out: activity (efficacy, larvae dead or moribund)
Protocol: Rhipicephalus microplus—in-Vitro Contact Tests Larval Cattle Tick (Strain Parkhurst, Resistant Against Synthetic Pyrethroids) (BOOPMI Contact)
9 mg compound is solved in 1 ml acetone and diluted with acetone to the desired concentration. 250 μL of the test solution is filled in 25 ml glass test tubes and homogeneously distributed on the inner walls by rotation and tilting on a shaking device (2 h at 30 rpm). With a compound concentration of 900 ppm, an inner surface of 44.7 cm^2 and a homogeneous distribution, a dose of 5 μg/cm^2 is achieved.
After the solvent has evaporated, each test tube is filled with 20-50 cattle tick larvae (Rhipicephalus microplus), closed with a perforated lid and incubated in a horizontal position at 85% relative humidity and 27° C. in an incubator. After 48 hours efficacy is determined. The larvae are patted on the ground of the tubes and negative geotactic behaviour is recorded.
An efficacy of 100% means all larvae are dead or moribund; 0% means no larvae are dead or moribund.

[3] = tested on: Spodoptera frugiperda; assay: Spodoptera frugiperda spray test; conditions: in Zea mays, 168 h, read-out: activity (mortality)
Protocol: Spodoptera frugiperda—Spray Test
Solvent: 78.0 parts by weight acetone • 1.5 parts by weight dimethylformamide
(§2) Emulsifier: alkylarylpolyglycol ether
(§3) To produce a suitable preparation of active compound, 1 part by weight of active compound is mixed with the stated amount of solvents and is diluted with water, containing an emulsifier concentration of 1000 ppm, to the desired concentration. Further test concentrations are prepared by dilution with emulsifier containing water.
Maize (Zea mays) leaf sections are sprayed with a preparation of the active ingredient of the desired concentration. Once dry, the leaf sections are infested with fall armyworm larvae (Spodoptera frugiperda).
After 7 days mortality in % is determined. 100% means all caterpillars have been killed and 0% means none of the caterpillars have been killed.

[4] = tested on: Diabrotica balteata; assay: Diabrotica balteata spray test; conditions: 168 h, wheat seeds, after 7 days, read-out: activity (efficacy, seedlings grown); for pest or weed control at 160 µg/disc, 500 g/ha: 500 g/ha (=160 μg/well)
Protocol: Diabrotica balteata—Spray Test
Solvent: 78.0 parts by weight of acetone • • 1.5 parts by weight of dimethylformamide
as §2
as §3, with “solvent,” for “solvents”, “and the concentrate” for “and”
Soaked wheat seeds (Triticum aestivum) are placed in a multiple well plate filled with agar and some water and are incubated for 1 day to germinate (5 seeds per well). The germinated wheat seeds are sprayed with a test solution containing the desired concentration of the active ingredient. Afterwards each unit is infected with 10-20 larvae of the banded cucumber beetle (Diabrotica balteata).
After 7 days efficacy in % is determined. 100% means all the seedlings have grown up like in the untreated, uninfected control; 0% means none of the seedlings have grown.

[5] = tested on: Ctenocephalides felis; assay: Ctenocephalides felis oral test (CTECFE); conditions: 48 h, 100 ppm in cattle blood, after 2 days
Protocol: Ctenocephalides felis—Oral Test (CTECFE)
as §1
To produce a suitable preparation of active compound, 10 mg of active compound are dissolved in 0.5 ml solvent, and the concentrate is diluted with cattle blood to the desired concentration.
Approximately 20 adult unfed cat fleas (Ctenocephalides felis) are placed in flea chambers. The blood chamber, sealed with parafilm on the bottom, are filled with cattle blood supplied with compound solution and placed on the gauze covered top of the flea chamber, so that the fleas are able to suck the blood. The blood chamber is heated to 37° C. whereas the flea chamber is kept at room temperature.
After 2 days mortality in % is determined. 100% means all the fleas have been killed; 0% means none of the fleas have been killed.

| SMILES | pest or weed control at 0.004 mg [1] [%] | pest or weed control at 0.02 mg [1] [%] | pest or weed control at 5 µg/cm2 [2] [%] | pest or weed control at 100 g/ha [4] [%] | also measured |
| --- | --- | --- | --- | --- | --- |
| C[C@H](Nc1nc2cc(C(F)(F)F)cc(Cl)c2o1)c1ncnn1-c1ccc(C(F)(F)F)cn1 [Example I-027] | 100 | 100 | 100 |  | mortality at 500 g/ha [3]: 100% |
| COc1nc([C@H](C)Nc2nc3cc(C(F)(F)F)c(Cl)cc3o2)n(-c2ccc(C#N)cn2)n1 [Example I-101, 6-{5-[(1S)-1-{[6-chloro-5-(trifluoromethyl)-1,3-benzoxazol-2-yl]amino}ethyl]-3-methoxy-1H-1,2,4-triazol-1-yl}pyridine-3-carbonitrile] |  |  |  | 100 |  |
| C[C@H](Nc1nc2cc(C(F)(F)F)cc(Br)c2o1)c1ncnn1-c1ccc(Cl)cn1 [Example I-054, 7-Brom-N-{(1S)-1-[1-(5-chlorpyridin-2-yl)-1H-1,2,4-triazol-5-yl]ethyl}-5-(trifluormethyl)-1,3-benzoxazol-2-amin] |  | 100 | 100 |  | mortality at 500 g/ha [3]: 100% |
| CCN(CC)C(=O)c1ccc(-n2ncnc2[C@H](C)Nc2nc3cc(C(F)(F)F)c(Cl)cc3o2)nc1 [Example I-102, 6-{5-[(1S)-1-{[6-chloro-5-(trifluoromethyl)-1,3-benzoxazol-2-yl]amino}ethyl]-1H-1,2,4-triazol-1-yl}-N,N-diethylpyridine-3-carboxamide] |  |  |  | 100 | mortality at 100 g/ha [3]: 100% |
| CC(C)c1cc(Cl)c2oc(N[C@@H](C)c3ncnn3-c3cc(C#N)ccn3)nc2c1 [Example I-064, 2-(5-{(1S)-1-[(7-Chlor-5-isopropyl-1,3-benzoxazol-2-yl)amino]ethyl}-1H-1,2,4-triazol-1-yl)isonicotinonitril] |  | 80 |  | 100 | pest or weed control at 160 µg/disc, 500 g/ha [4]: 100% |
| Cc1nc([C@H](C)Nc2nc3cc(C(F)(F)F)cc(Cl)c3o2)n(-c2ccc(C#N)cn2)n1 [Example I-020] |  |  | 100 |  |  |
| CC(Nc1nc2cc(C(F)(F)F)cc(Cl)c2o1)c1nc(C(F)(F)F)nn1-c1ncccn1 (racemic) [Example I-048, 7-Chlor-N-{(rac)-1-[1-(pyrimidin-2-yl)-3-(trifluormethyl)-1H-1,2,4-triazol-5-yl]ethyl}-5-(trifluormethyl)-1,3-benzoxazol-2-amin] |  |  |  |  | mortality at 100 ppm [5]: 100% |
| C[C@H](Nc1nc2cc(C(F)(F)F)cc(Cl)c2o1)c1ncnn1-c1ccc(Cl)cn1 [Example I-015] | 80 | 100 | 100 |  | pest or weed control at 160 µg/disc, 500 g/ha [4]: 100%; mortality at 500 g/ha [3]: 100% |
| C[C@H](Nc1nc2cc(C(F)(F)F)ccc2o1)c1ncnn1-c1ncccn1 [Example I-003] |  |  |  |  | pest or weed control at 160 µg/disc, 500 g/ha [4]: 80% |
| CC(C)c1cc(Cl)c2oc(N[C@@H](C)c3ncnn3-c3ncccn3)nc2c1 [Example I-063, 7-Chlor-5-isopropyl-N-{(1S)-1-[1-(pyrimidin-2-yl)-1H-1,2,4-triazol-5-yl]ethyl}-1,3-benzoxazol-2-amin] | 80 | 100 |  | 100 | pest or weed control at 160 µg/disc, 500 g/ha [4]: 80% |
| Cc1nc([C@H](C)Nc2nc3cc(Cl)cc(C(F)(F)F)c3o2)n(-c2ncccn2)n1 [Example I-089, 5-Chlor-N-{(1S)-1-[3-methyl-1-(pyrimidin-2-yl)-1H-1,2,4-triazol-5-yl]ethyl}-7-(trifluormethyl)-1,3-benzoxazol-2-amin] | 100 | 100 |  |  |  |
| C[C@H](Nc1nc2cc(C(F)(F)F)cc(C(F)(F)F)c2o1)c1ncnn1-c1ccc(C(F)(F)F)cn1 [Example I-030] | 80 | 100 |  |  |  |
| COc1cnc(-n2ncnc2[C@H](C)Nc2nc3cc(C(F)(F)F)cc(Cl)c3o2)nc1 [Example I-043, 7-Chlor-N-{(1S)-1-[1-(5-methoxypyrimidin-2-yl)-1H-1,2,4-triazol-5-yl]ethyl}-5-(trifluormethyl)-1,3-benzoxazol-2-amin] |  |  |  |  | mortality at 100 g/ha [3]: 100% |
| C[C@H](Nc1nc2cc(C(C)(C)C)cc(Cl)c2o1)c1ncnn1-c1ccc(C#N)cn1 [Example I-077, 6-(5-[(1S)-1-[(5-tert-Butyl-7-chlor-1,3-benzoxazol-2-yl)amino]ethyl}-1H-1,2,4-triazol-1-yl)nicotinonitril] | 100 | 100 |  |  |  |
| Cc1nc([C@H](C)Nc2nc3cc(C(F)(F)F)cc(C(F)(F)F)c3o2)n(-c2ccc(C#N)cn2)n1 [Example I-021] | 100 | 100 | 80 | 100 | pest or weed control at 160 µg/disc, 500 g/ha [4]: 100% |
| CC(C)c1cc(Cl)c2oc(N[C@@H](C)c3ncnn3-c3ncc(Br)cn3)nc2c1 [Example I-068, N-{(1S)-1-[1-(5-Brompyrimidin-2-yl)-1H-1,2,4-triazol-5-yl]ethyl}-7-chlor-5-isopropyl-1,3-benzoxazol-2-amin] | 100 | 100 | 80 |  |  |
| C[C@H](Nc1nc2cc(C(F)(F)F)cc(Cl)c2o1)c1ncnn1-c1ccc(C#N)cn1 [Example I-018] | 100 | 100 | 80 | 100 | pest or weed control at 160 µg/disc, 500 g/ha [4]: 100%; mortality at 100 g/ha [3]: 100%; mortality at 500 g/ha [3]: 100% |
| C[C@H](Nc1nc2cc(C(F)(F)F)c(Cl)cc2o1)c1ncnn1-c1ccc(C(=O)N2CCCC2)cn1 [Example I-103, (6-{5-[(1S)-1-{[6-chloro-5-(trifluroomethyl)-1,3-benzoxazol-2-yl]amino}ethyl]-1H-1,2,4-triazol-1-yl}pyridin-3-yl)(pyrrolidin-1-yl)methanone] |  |  |  | 100 |  |
| Cc1csc(-n2ncnc2[C@H](C)Nc2nc3cc(C(F)(F)F)cc(Cl)c3o2)n1 [Example I-038, 7-chloro-N-{(1S)-1-[1-(4-methyl-1,3-thiazol-2-yl)-1H-1,2,4-triazol-5-yl]ethyl}-5-(trifluoromethyl)-1,3-benzoxazol-2-amine] | 80 |  |  |  |  |
| C[C@H](Nc1nc2cc(C(F)(F)F)cc(C(F)(F)F)c2o1)c1ncnn1-c1ccc(Cl)cn1 [Example I-032] |  | 100 |  |  | mortality at 500 g/ha [3]: 100% |
| C[C@H](Nc1nc2cc(S(=O)(=O)c3ccccc3)cc(Cl)c2o1)c1ncnn1-c1ncccn1 [Example I-080, 7-Chlor-5-(phenylsulfonyl)-N-{(1S)-1-[1-(pyrimidin-2-yl)-1H-1,2,4-triazol-5-yl]ethyl}-1,3-benzoxazol-2-amin] |  |  | 100 |  |  |
| COc1ccnc(-n2ncnc2[C@H](C)Nc2nc3cc(C(F)(F)F)cc(Cl)c3o2)n1 [Example I-051, 7-Chlor-N-{(1S)-1-[1-(4-methoxypyrimidin-2-yl)-1H-1,2,4-triazol-5-yl]ethyl}-5-(trifluormethyl)-1,3-benzoxaozl-2-amin] |  | 100 | 80 |  |  |
| Cc1nc([C@H](C)Nc2nc3cc(C(F)(F)F)cc(C(F)(F)F)c3o2)n(-c2ccc(C(F)(F)F)cn2)n1 [Example I-029] |  |  | 100 |  |  |
